Assay results reported in PMC6657668, “Porcine Beta-Defensin 2 Provides Protection Against Bacterial Infection by a Direct Bactericidal Activity and Alleviates Inflammation via Interference With the TLR4/NF-κB Pathway” (Frontiers in Immunology, 2019).
Where a SMILES comes first, the peptide text is derived from it.

Columns and labels:
RAW 264.7 cells [1] = assay: Cytokine levels of RAW 264.7 cells after treatment with S. Typhimurium (ELISA); assay type: cell-based, mouse; conditions: S. Typhimurium MOI = 10:1, 1 h, n = 6
Experimental: (§1) RAW 264.7 cells and RAW 264.7 cells stably expressing PBD-2 were pre-treated with S. Typhimurium at MOI = 10:1 for 1 h or with LPS (1 μg/ml) for 16 h, washed with PBS twice and incubated with RPMI 1640 that contained PBS or PBD-2 (10 μg/mL) for 16 h. RAW 264.7 cells stably expressing PBD-2 were maintained in RPMI 1640 that contained PBS for 16 h (n = 6 for each group). The expression levels of proinflammatory cytokines in the cell culture supernatant were determined through ELISA in accordance with the manufacturer's instruction.

RAW 264.7 cells [2] = assay: Cytokine levels of RAW 264.7 cells after treatment with LPS (ELISA), with or without pathway inhibitor; assay type: cell-based, mouse; conditions: for IL-1β level / IL-6 level / TNF-α level: LPS 1 μg/ml
Experimental: as §1
In the inhibition assay, RAW 264.7 cells were pre-treated with 4 μg/ml NF-κB inhibitor (Celastrol, # ant-cls, InvivoGen®, San Diego, CA, USA) or 1 μg/ml TLR4 inhibitor (CLI-095, # tlrl-cli95, InvivoGen®, San Diego, CA, USA) for 1 h. Subsequently, RAW 264.7 cells were treated with LPS (1 μg/ml) alone or together with PBD-2 (10 μg/mL) for 16 h (n = 6 each group). RAW 264.7 cells treated with PBS were used as control. The levels of the cytokines in the supernatant of the cells were detected through ELISA.

NF-κB p65 = assay: Western blot of p65 and p-p65 in RAW 264.7 cells; assay type: cell-based, mouse
Experimental: (§2) RAW 264.7 cells were treated with LPS (1 μg/ml) alone or together with PBD-2 (10 μg/mL). After 6 h, the cells were lysed, and inflammatory proteins were detected through Western blot. Proteins were firstly analyzed with SDS-PAGE and then electro-transferred onto a PVDF (#ISEQ00010, Biosharp®, Beijing, China) membrane. The PVDF membrane was blocked with 1/100 bovine serum albumin (BSA, #V900933-100G, VETEC, Sigma-Aldrich®, St. Louis, MO, USA) at 10 μg/ml at 37°C for 2 h, washed with PBST five times, incubated with the antisera against p-p65 (# 3033), p65 (# 4764), p-ERK (# 4370), ERK (# 4695), p-p38 (# 4511), p38 (# 8690), p-JNK (# 4668), JNK (# 9258) (Cell Signaling Technology®, Danvers, MA, USA), and β-actin (# AA128, Beyotime®, Shanghai, China) at 2 μg/ml at 37°C for 2 h and washed five times again. The PVDF membrane was subsequently incubated with 1 μg/ml secondary antibody, namely, goat anti-rabbit IgG (# 7074S, Cell Signaling Technology®, Danvers, MA, USA), at 37°C for 2 h and washed five times. Lastly, immune-reactive bands were detected using an ECF Western blot system (Tanon 5200 Multi, Shanghai, China) and quantified using AlphaImager 2200 analysis software.

p38 = assay: Western blot of p38 and p-p38 in RAW 264.7 cells; assay type: cell-based, mouse; conditions: LPS 30 min with various concentrations of PBD-2 (Figure S4)
Experimental: as §2, with “After 6 h, the cells were lysed, and inflammatory proteins were detected through Western blot.” left out
Supplementary file Image_4.TIF: Figure S4 Effects of PBD-2 on ERK, p38, and JNK signaling pathways. Cells were treated with LPS for 30 min with or without various concentrations of PBD-2. […] The signal intensity of each band was quantified (B–D). […]

NF-κB = NF-κB promoter activity, luciferase reporter assay in RAW 264.7 cells; assay type: cell-based, mouse; conditions: n = 6
Experimental: A luciferase reporter assay was used to detect the promoter activity of NF-κB. RAW 264.7 cells were seeded in a 24-well plate for 24 h and then cotransfected with 800 ng/well of the NF-κB reporter plasmid (pGL3-Basic) and 20 ng/well of pLR-TK. WT […] luciferase (Rluc) served as the reporter gene control vector. […] In the inhibition assay, the cells were pre-treated with 1 μg/ml TLR4 inhibitor for 1 h and treated with LPS (1 μg/ml) alone or together with PBD-2 (10 μg/mL) for 24 h (n = 6 each group). Luciferase units were detected to show the promoter activity of NF-κB ([28]).

S. Typhimurium = assay: Body weight loss of mice infected with S. Typhimurium; conditions: PBD-2 expressed in TG mice; oral 2.5 × 10^8 CFU; days 1-5; n = 7; vs WT
Experimental: Four infection experiments were conducted to determine the resistance to S. Typhimurium of the TG mice. For body weight measurements, 7 WT and 7 TG mice were orally administered with 2.5 × 10^8 CFU of S. Typhimurium, and the body weight of each mouse was measured on days 1, 2, 3, 4, and 5 after infection. For the detection of the tissue weight ratios, bacterial loads in tissues and tissue lesions after S. Typhimurium infection, 9 WT and 8 TG mice were orally administered with 2.5 × 10^8 CFU of S. Typhimurium. The spleen, caecum and body weights of the mice were weighed at 24 h post-infection. The bacterial loads in the tissues were also measured ([26]). The spleen and caecum were weighed and homogenized in cold PBS at a ratio of 4 ml per gram of tissue and coated plates. The bacterial numbers in the homogenates were counted by serially diluting the homogenates and spreading on plates. Caeca were harvested for histopathological analysis by using the methods described above. The intestinal damage, including epithelial damage, submucosal oedema, and neutrophil aggregation, was observed.

[3] = PBD-2 expressed by RAW 264.7–PBD-2 cells
[4] = PBD-2 expressed by RAW 264.7–PBD-2 cells, n = 6
[5] = synthetic PBD-2 10 μg/mL with LPS 1 μg/ml, 16 h, after CLI-095 1 μg/ml, n = 6
[6] = synthetic PBD-2 10 μg/mL with LPS 1 μg/ml, 16 h, after Celastrol 4 μg/ml, n = 6
[7] = synthetic PBD-2 10 μg/mL, 16 h, n = 6

## CC[C@H](C)[C@H](NC(=O)[C@@H]1CSSC[C@@H]2NC(=O)[C@@H]3CCCN3C(=O)[C@H](CO)NC(=O)[C@H](Cc3ccccc3)NC(=O)[C@H](CC(N)=O)NC(=O)[C@@H]3CSSC[C@H](NC(=O)[C@H]([C@@H](C)O)NC(=O)CNC(=O)[C@H](CCC(=O)O)NC(=O)[C@H]([C@@H](C)CC)NC(=O)[C@H](CCCNC(=N)N)NC(=O)[C@H](CC(N)=O)NC(=O)[C@H](Cc4ccccc4)NC(=O)[C@H](CC(C)C)NC(=O)[C@@H]4CCCN4C2=O)C(=O)N[C@@H](Cc2ccc(O)cc2)C(=O)N[C@@H](CO)C(=O)NCC(=O)N[C@@H](CCCCN)C(=O)N[C@@H](C)C(=O)N[C@@H](CCCCN)C(=O)N[C@@H](CSSC[C@H](NC(=O)[C@@H](NC(=O)[C@H](Cc2ccc(O)cc2)NC(=O)[C@H](Cc2c[nH]cn2)NC(=O)[C@@H](N)CC(=O)O)[C@@H](C)CC)C(=O)N[C@@H](C)C(=O)N[C@@H](CCCCN)C(=O)N[C@@H](CCCCN)C(=O)NCC(=O)NCC(=O)N[C@@H]([C@@H](C)O)C(=O)N3)C(=O)N1)C(=O)N[C@@H](CCCNC(=N)N)C(=O)O [PBD-2, Porcine beta-defensin 2] (HELM PEPTIDE1{D.H.Y.I.C.A.K.K.G.G.T.C.N.F.S.P.C.P.L.F.N.R.I.E.G.T.C.Y.S.G.K.A.K.C.C.I.R}$PEPTIDE1,PEPTIDE1,5:R3-34:R3|PEPTIDE1,PEPTIDE1,12:R3-27:R3|PEPTIDE1,PEPTIDE1,17:R3-35:R3$$$V2.0; N-terminus and C-terminus assumed)
RAW 264.7 cells [1]; [3]
  level of IL-1β: significantly lower in the RAW 264.7–PBD-2 cells than in the RAW 264.7 cells after S. Typhimurium treatment (p < 0.01)
  level of IL-6: significantly lower in the RAW 264.7–PBD-2 cells than in the RAW 264.7 cells after S. Typhimurium treatment (p < 0.01)
  level of TNF-α: significantly lower in the RAW 264.7–PBD-2 cells than in the RAW 264.7 cells after S. Typhimurium treatment (p < 0.01)
RAW 264.7 cells [1]; synthetic PBD-2 10 μg/mL, 16 h
  secretion of IL-1β: significantly inhibited the secretion of TNF-α, IL-6, and IL-1β after S. Typhimurium treatment (p < 0.05)
  secretion of IL-6: significantly inhibited the secretion of TNF-α, IL-6, and IL-1β after S. Typhimurium treatment (p < 0.05)
  secretion of TNF-α: significantly inhibited the secretion of TNF-α, IL-6, and IL-1β after S. Typhimurium treatment (p < 0.05)
RAW 264.7 cells [2]; [4]
  IL-1β level: significantly reduced in RAW 264.7 cells supplemented with PBD-2 or in the RAW 264.7–PBD-2 cells (p < 0.05)
  IL-6 level: significantly reduced in RAW 264.7 cells supplemented with PBD-2 or in the RAW 264.7–PBD-2 cells (p < 0.05)
  TNF-α level: significantly reduced in RAW 264.7 cells supplemented with PBD-2 or in the RAW 264.7–PBD-2 cells (p < 0.05)
RAW 264.7 cells [2]; PBD-2 without stimulus (Figures 5A–C)
  cytokine secretion, PBD-2 itself: did not affect cytokine secretion
RAW 264.7 cells [2]; S. Typhimurium or LPS (Figures 5A–C)
  inflammatory responses of RAW 264.7 cells expressing PBD-2 versus supplemented with synthetic PBD-2: lower than those of the cells supplemented with synthetic PBD-2
RAW 264.7 cells [2]; [5]
  secretion of IL-1β in the presence of TLR4 inhibitor: did not affect the secretion of these cytokines in the presence of TLR4 inhibitor (NS, p > 0.05)
  secretion of IL-6 in the presence of TLR4 inhibitor: did not affect the secretion of these cytokines in the presence of TLR4 inhibitor (NS, p > 0.05)
  secretion of TNF-α in the presence of TLR4 inhibitor: did not affect the secretion of these cytokines in the presence of TLR4 inhibitor (NS, p > 0.05)
RAW 264.7 cells [2]; [6]
  secretion of IL-1β in the presence of NF-κB inhibitor: did not affect the secretion of these cytokines in the presence of NF-κB inhibitor (NS, p > 0.05)
  secretion of IL-6 in the presence of NF-κB inhibitor: did not affect the secretion of these cytokines in the presence of NF-κB inhibitor (NS, p > 0.05)
  secretion of TNF-α in the presence of NF-κB inhibitor: did not affect the secretion of these cytokines in the presence of NF-κB inhibitor (NS, p > 0.05)
RAW 264.7 cells [2]; [7]
  IL-1β level: significantly reduced in RAW 264.7 cells supplemented with PBD-2 or in the RAW 264.7–PBD-2 cells (p < 0.05)
  IL-6 level: significantly reduced in RAW 264.7 cells supplemented with PBD-2 or in the RAW 264.7–PBD-2 cells (p < 0.05)
  TNF-α level: significantly reduced in RAW 264.7 cells supplemented with PBD-2 or in the RAW 264.7–PBD-2 cells (p < 0.05)
NF-κB p65; LPS 1 μg/ml, PBD-2 10 μg/mL (legend: various concentrations), 6 h
  LPS-induced NF-κB p65 phosphorylation: suppress the LPS-induced NF-κB p65 phosphorylation
NF-κB p65; PBD-2 without LPS (Figure 5D)
  activation of NF-κB by PBD-2 itself: did not activate NF-κB
p38
  LPS-induced phosphorylation of p38: did not affect the LPS-induced phosphorylation of ERK, p38, and JNK
NF-κB; LPS 1 μg/ml with PBD-2 10 μg/mL, 24 h
  NF-κB promoter activity after LPS induction: inhibited the promoter activities of NF-κB after LPS induction (p < 0.01)
NF-κB; PBD-2 10 μg/mL with LPS 1 μg/ml, 24 h, after CLI-095 1 μg/ml
  NF-κB promoter activity in the presence of TLR4 inhibitor: did not influence the NF-κB promoter activity in the presence of TLR4 inhibitor (NS, p > 0.05)
NF-κB; PBD-2 10, 30, and 60 μg/ml for 30, 60, 120, or 240 min, then LPS
  inhibitory effect on NF-κB promoter activity after pre-incubation with PBD-2: positively correlated with dose and incubation time with PBD-2 (p < 0.05)
S. Typhimurium
  body weight loss: less degree of body weight loss from day 2 onwards (p < 0.05)
